Test results: patent publication EP0472573B1, “HERBICIDE RESISTANT MAIZE” (ZENECA LIMITED, priority 1989, dated 1990)

Legend:
Mutant 3 plants = experiment: Cross-resistance testing (glasshouse dose response), Mutant 3; format: in vivo, Zea mays; settings: pre-emergence spray, assessed after four weeks growth
Excerpt: (§1) The seeds used in this screen were populations of mixed tolerant and sensitive seed, segregating 1:1, derived from each of the heterogygous, tolerant mutants crossed with homozygous, sensitive UE95. All of the tolerant progeny are heterozygous for tolerance. Each of the mutants identified above were used except mutant 4. The controls were seed of self-pollinated UE95 which was pollinated in the same year as the tolerant lines.
(§2) One litre of compost was placed in each seed tray of dimensions 19cm x 11cm x 5cm deep and firmed down flat. Two furrows 1 cm deep were drawn in the surface of the compost in each tray and six seeds were sown in each furrow (total twelve seeds per tray). Some trays were sown with 24 seeds, in which case three furrows were made and 8 seeds sown per furrow.
(§3) In each test each tray contained either the seed of one mutant or of the UE95 control for each herbicide application rate and for the untreated control.
(§4) Five different types of ALS-inhibitor herbicides were tested on the mutants plus imazethapyr (PURSUIT) as a comparison. Four rates of each were applied; approximately 0.1x, 0.5x, 1x and 4x the estimated field rates for each herbicide. The rates are the same for mutant 3 to 10 but higher rates for chlorimuron (CLASSIC) and lower rates for chlorsulfuron (GLEAN) were applied to mutants 1 and 2.
(§5) The rates of application used in the screening tests were as follows: chlorimuron (CLASSIC) 4,20,40,160 g/Ha (mutants 1 and 2); and, 8,40,80,320 g/Ha (mutants 3 to 10); chlorsulfuron (GLEAN) 5,25,50,200 g/Ha (mutants 1 and 2); and, 1,5,10,40 g/Ha (mutants 3 to 10); imazaquin (SCEPTER) 30,150,300,1200 g/Ha; triazolopyrimidine 5,25,50,200 g/Ha; phenoxypyrimidine 10,50,100,400 g/Ha; and, imazethapyr (PURSUIT) 30,150,300,1200 g/Ha The triazolopyrimidine and phenoxypyrimidine were formulated in an adjuvant wetting agent known as JF5969 and diluted with water to make a final concentration of 10% JF5969. The remaining compounds were diluted with water only.
(§6) The spray jet and parameters were as decribed above under "SCREENING". After spraying, the seeds were covered with 0.5 litre of compost and firmed down flat (2.5cm covering) and grown under the conditions described under "SCREENING" above.
(§7) Visual assessments were made of the plants after four weeks growth. Each plant was scored on a scale of zero to 5 and the height measured from soil surface to the tallest leaf tip. The scoring scale was as follows: 0 - 0 to 10% damage (little or no herbicidal effect) 1 - 11 to 25% damage 2 - 26 to 50% damage 3 - 51 to […] 4 - 81 to 95% damage 5 - 96 to 100% damage (complete death of the plant) In carrying out these assessments, plants which were obviously of the sensitive phenotype were ignored (approximately 50% of the plants). […]

Mutant 1 plants = experiment: Cross-resistance testing (glasshouse dose response), Mutant 1; format: in vivo, Zea mays; settings: pre-emergence spray, assessed after four weeks growth
Excerpt: as §1, §2, §3, §4, §5, §6, §7

[1] = target: ALS enzyme extracted from Mutant 2 (heterozygous); experiment: ALS enzyme assay, heterozygous Mutant 2; format: biochemical, Zea mays; settings: for IC50: ALS of heterozygous Mutant 2, read-out: ID50% (the source's name); for resistance group, Enzyme Assay: Mutant 2, groups Strong, Intermediate, Weak, Zero; for Fold Increase: fold increase in resistance vs wild type, heterozygous Mutant 2, 30 min
Protocol: (§8) Seeds of generation M₁BC₁ M₁BC₂ of the nine mutants were sprayed pre-emergence with the herbicide imazethapyr (PURSUIT) (Trade Mark) at a rate of 250 g/ha and grown in a growth chamber (16 hour day, 27°C; 8 hour night, 17°C). Plants were harvested after 11 days.
(§9) Four grams of leaf material were harvested from just above the first leaf axis and ground in a mortar and pestle in 20ml of a solution containing 40mM Tricine (Trade Mark), 10mM EDTA, 5mM pyruvate, 80 »M flavin adenine dinucleotide (FAD), 1mM dithiothreitol (DTT), pH 8, plus 0.8g Polyclar AT. The homogenate was pressed through four layers of muslin and centrifuged at 30,000g for 20 minutes.
(§10) The supernatant was brought to 65% saturation with ammonium sulphate, left to precipitate for 30 minutes and then centrifuged at 30.000g for 20 minutes. The pellet was resuspended in 2.5ml of 40mM Tricine, 10mM EDTA, 5mM pyruvate, 80»M FAD, 25% (v/v) glycerol, 1mM DTT, pH 8, and desalted into 3.5ml of 40mM Tricine, 10mM EDTA, 25% (v/v) glycerol, 1mM DTT, pH 8.
(§11) One hundred microlitres of the enzyme extract was used for each assay. Final reagent concentrations were: 120mM Tricine, 50mM pyruvate, 10mM MgCl₂, […], 93»M thiamine pyrophosphate (TPP), pH 8, in the presence or absence of a herbicide of interest, in a volume of 750 »l. Incubations were carried out at 37°C for 30 minutes. Reactions were stopped with 250»l of 1.84M sulphuric acid, and decarboxylation of the acetolactate carried out at 37°C for 75 minutes, or at 60°C for 30 minutes. Assay blanks had sulphuric acid added prior to the enzyme extract. To the samples and blanks 650»l of α-naphthol in 2.73M NaOH/0.16%(w/v) creatine were added followed by incubation at 37°C for 30 minutes. After centrifugation at 30,000g the optical density of the supernatant was read at 540nm.
(§12) The assay procedure described was carried out on ALS enzyme extracted from each of the nine mutants for the following herbicides: imazethapyr (PURSUIT) imazapyr (ARSENAL) imazaquin (SCEPTER) chlorsulfuron (GLEAN) chlorimuron (CLASSIC) […] (HARMONY) The enzyme activity graphs are given as Figures 3 to 8. In addition, homozygous lines of mutants 1 and 2 which were selected from generation M₁BC₁S₂, were also tested against the same group of herbicides and against representatives of the triazolopyrimidines and phenoxypyrimidines. The chemical structures of these herbicides are shown in Figure 2 of the accompanying drawings.
(§13) From the enzyme assay data it is possible to derive, as a measure of the degree of inhibition the factor ID50% for each mutant and for each herbicide. This factor is indicative of the herbicide concentration which gives 50% inhibition of the ALS activity in comparison with the wild-type control. It is also possible to derive the fold increase in resistance.

[2] = target: ALS enzyme extracted from Mutant 7 (heterozygous); experiment: ALS enzyme assay, heterozygous Mutant 7; format: biochemical, Zea mays; settings: for IC50: ALS of heterozygous Mutant 7, read-out: ID50% (the source's name); for resistance group, Enzyme Assay: Mutant 7, groups Strong, Intermediate, Weak, Zero; for Fold Increase: fold increase in resistance vs wild type, heterozygous Mutant 7, 30 min
Protocol: as §8, §9, §10, §11, §12, §13

[3] = target: ALS enzyme extracted from Mutant 5 (heterozygous); experiment: ALS enzyme assay, heterozygous Mutant 5; format: biochemical, Zea mays; settings: for IC50: ALS of heterozygous Mutant 5, read-out: ID50% (the source's name); for resistance group, Enzyme Assay: Mutant 5, groups Strong, Intermediate, Weak, Zero; for Fold Increase: fold increase in resistance vs wild type, heterozygous Mutant 5, 30 min
Protocol: as §8, §9, §10, §11, §12, §13

SMILES	resistance group, Dose Response (Mutant 3 plants)	resistance group, Dose Response (Mutant 1 plants)	IC50 [1]	resistance group, Enzyme Assay [1]	Fold Increase [1]	IC50 [2]	resistance group, Enzyme Assay [2]	Fold Increase [2]	IC50 [3]	resistance group, Enzyme Assay [3]	Fold Increase [3]
CC(C)C1(C)N=C(c2nc3ccccc3cc2C(=O)O)NC1=O (centres unmarked) [Imazaquin, imazaquin]	Weak	Strong	20000 nM	Intermediate	33	1000 nM	Weak	2	25000 nM	Intermediate	42
COc1cc(Cl)nc(NC(=O)NS(=O)(=O)c2ccccc2C(=O)O)n1 [Chlorimuron, chlorimuron]	Weak	Zero	10 nM	Weak	3	5 nM	Weak	1	17 nM	Weak	5
CCc1cnc(C2=NC(=O)C(C)(C(C)C)N2)c(C(=O)O)c1 (centres unmarked) [Imazethapyr, 5-ethyl-2-(5-iso-propyl-5-methyl-4-oxo-2-imidazolin-2-yl) nicotinic acid]	Weak	Strong	230000 nM	Intermediate	153	4000 nM	Weak	3	125000 nM	Intermediate	83
COc1nc(C)nc(NC(=O)NS(=O)(=O)c2ccccc2Cl)n1 [Chlorsulfuron, chlorsulfuron]	Intermediate	Zero	65 nM	Weak	4	8 nM	Zero	1	40 nM	Weak	2
